Results: US20180119156A1, “[…] GENE EXPRESSION” (priority 2015, published 2018)

Legend:
[1] = tested on: E. coli DH10B-T7His-Theo4; format: cell-based, Escherichia coli
Experimental: The performance of the cascade was measured using GFPuv expression (FIG. 12). Specifically, the theophylline dependency of the cascade at 0.8 mg/L rhamnose was measured. […] Additionally, expression of GFPuv over a wide range of rhamnose and theophylline concentrations was determined.
E. coli DH10B-T7His-Theo4 was grown overnight at 37° C. in LB medium containing kanamycin (50 mg/L). A 96 well 2 ml culture plate (Greiner) was filled with a concentrate of theophylline and L-rhamnose. […] Culture plates were incubated at 37° C. overnight under continuous shaking. The bacteria were centrifuged for 10 minutes at 4700 rpm in a Sorval Legend centrifuge. The supernatant was cleared and the cell pellet was resuspended in 500 μL 50 mM Tris-HCl pH 7.5. After resuspension, the plates were incubated at 37° C. for 1 hour to allow maturation of the GFPuv. 100 μL of suspension was pipetted into a 98 well black plate with clear bottom (Perkin Elmer) and measured with a Synergy MX plate reader. The cell density was measured by scattering at 600 nm and the fluorescence was measured at an excitation wavelength of 385 nm with a width of 20 nm and an emission wavelength of 508 nm with 20 nm width with a gain of 50. The background fluorescence and background scattering were subtracted and the fluorescence was divided by the scattering at 600 nm. The background fluorescence of bacteria without either GFPuv or T7His polymerase was negligible, but the fluorescence caused by other components than GFPuv in the bacteria was still subtracted.
The theophylline dependency of the cascade in response to differing concentrations of rhamnose was measured. E. coli DH10B-T7His-Theo4 diluted from an overnight culture were grown overnight in a 2 mL culture plate containing a variable amount of L-rhamnose and theophylline. The medium was cleared and the bacteria were resuspended in 50 mM Tris-HCl pH 7.5. The fluorescence was measured at an excitation wavelength of 385 nm and an emission wavelength of 508 nm. The cell density was measured by scattering at 600 nm.

[2] = tested on: thyA-deficient E. coli DH10B strain
Experimental: A comparison of a single intron construct with a construct of the present invention featuring a tandem self-splicing intron was made (FIG. 9). Growth (OD600) was plotted against time (minutes) in the presence (1 mM) and absence (0 mM) of theophylline for the construct designed by Thompson et al. (Thompson et al. 2002 BMC Biotechnol. 2: 21) utilising one theophylline-dependent intron in thyA, in a thyA-deficient E. coli DH10B strain (FIG. 9A). […] Growth was measured in the same way for a construct containing an E. coli thyA gene interrupted by two theophylline-dependent introns, which was transformed into a thyA-deficient E. coli DH10B strain. The overnight growth was plotted against the theophylline concentration in the medium (FIG. 9B).

[3] = tested on: thyA knockout strain of E. coli; conditions: single theophylline-dependent intron, background subtracted; cited from earlier work

Compound | background expression, % of the maximum expression ([1]; fully induced with rhamnose, theophylline absent, one intron cascade) | concentration above which theophylline became slightly toxic ([2]; overnight growth, E. coli DH10B thyA-deficient) | Kd ([2]; read-out: apparent kd value, Michaelis-Menten-like profile of overnight growth vs theophylline concentration, two introns in thyA) [µM] | theophylline-induced growth, % of the parental intron [3] | fold-change in GFPuv fluorescence caused by theophylline ([1]; at any L-rhamnose concentration) | signal of fully induced system relative to strong TacI promoter (pSC034f) ([1]; fully induced with rhamnose and theophylline)
C[C@H](O)[C@H](O)[C@@H](O)[C@@H](O)C=O [rhamnose, L-rhamnose] | about 7.5% | – | – | – | – | –
Cn1c(=O)c2[nH]cnc2n(C)c1=O [theophylline] | – | Above 1 mM | 100 to 200 | approximately 40% | around 15 times | 5-6 times
